Measurements from PubChem BioAssay (NCI).
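1) Cells in 96-well plates. 2) Compound, 48 h, 5 concentrations. 3) Linear interpolation between surrounding doses. 4) Unreached endpoint = highest concentration. Here, GI50 denotes the concentration required for 50% inhibition of growth. The concentration for full growth arrest is given as TGI.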

Tests used:
Test in all cases: growth of human tumour cells (NCI), 48 h
A498 renal = tested on: A498 renal
CAKI-1 renal = tested on: CAKI-1 renal
COLO 205 colon = tested on: COLO 205 colon
HL-60(TB) leukemia = tested on: HL-60(TB) leukemia
MALME-3M melanoma = tested on: MALME-3M melanoma
RPMI-8226 leukemia = tested on: RPMI-8226 leukemia
BT-549 breast = tested on: BT-549 breast
HS 578T breast = tested on: HS 578T breast
MDA-MB-231 breast = tested on: MDA-MB-231 breast
MDA-N = tested on: MDA-N
SR leukemia = tested on: SR leukemia
M14 melanoma = tested on: M14 melanoma

Row | SMILES | TGI (A498 renal) | TGI (CAKI-1 renal) | TGI (COLO 205 colon) | TGI (HL-60(TB) leukemia) | TGI (MALME-3M melanoma) | TGI (RPMI-8226 leukemia) | TGI (BT-549 breast) | TGI (HS 578T breast) | TGI (MDA-MB-231 breast) | TGI (MDA-N) | TGI (SR leukemia) | TGI (M14 melanoma) | GI50 (A498 renal) | GI50 (CAKI-1 renal) | GI50 (HS 578T breast) | GI50 (MALME-3M melanoma) | GI50 (MDA-MB-231 breast) | GI50 (RPMI-8226 leukemia) | GI50 (SR leukemia)
1 | NCCCCCC(CCN)SCC1OC(n2cnc3c(N)ncnc32)C(O)C1O (configuration not stated) | > 1500 µM | 1270 µM | > 1500 µM | > 1500 µM | > 1500 µM | 1140 µM | – | – | – | – | – | – | – | – | – | – | – | – | –
2 | COC(=O)/C=C1\SC2(OC1=Nc1ccccc1)C1CC3CC(C1)CC2C3 (configuration not stated) | > 100 µM | > 100 µM | – | > 100 µM | – | > 100 µM | > 100 µM | > 100 µM | > 100 µM | > 100 µM | > 100 µM | – | – | – | – | – | – | – | –
3 | Nc1ccccc1N | > 100 µM | > 100 µM | > 100 µM | 70.3 µM | > 100 µM | > 100 µM | – | – | – | – | > 100 µM | > 100 µM | – | – | – | – | – | – | –
4 | CCOC(=O)CC1=N/C(=N/C(=N)N[N+](=O)[O-])SC1 | > 100 µM | > 100 µM | > 100 µM | > 100 µM | > 100 µM | – | – | – | – | – | – | > 100 µM | – | – | – | – | – | – | –
5 | O=C(O)c1ccccc1CN1CCCC(C(=O)O)C1 (configuration not stated) | > 100 µM | > 100 µM | > 100 µM | – | > 100 µM | > 100 µM | > 100 µM | > 100 µM | > 100 µM | > 100 µM | > 100 µM | > 100 µM | – | – | – | – | – | – | –
6 | CCOc1ccc(/C=C2\N=C(c3ccccc3)OC2=O)cc1 | – | – | – | > 100 µM | – | > 100 µM | > 100 µM | > 100 µM | – | – | > 100 µM | > 100 µM | – | – | – | – | – | – | –
7 | N=c1sc2ccccc2n1CCS (tested in a mixture with another compound) | 33.2 µM | 45.8 µM | 27.5 µM | 66.9 µM | 37.6 µM | – | 48.4 µM | > 100 µM | 35.9 µM | > 100 µM | – | 30.6 µM | – | – | – | – | – | – | –
8 | COc1cccc2c1C(=O)c1c(O)c3c(c(O)c1C2=O)C[C@@](O)(C(=O)CO)CC3OC1CC(N(C)CCOCC(OC(C)=O)OC(C)=O)C(O)C(C)O1 (some centres not stated) | – | > 0.01 µM | – | > 0.01 µM | > 0.01 µM | > 0.01 µM | – | – | – | – | – | > 0.01 µM | – | – | – | – | – | – | –
9 | NC(Cc1ccc(CP(=O)(O)O)cc1)C(=O)O (configuration not stated) | – | > 100 µM | > 100 µM | > 100 µM | – | > 100 µM | – | > 100 µM | > 100 µM | > 100 µM | > 100 µM | > 100 µM | – | – | – | – | – | – | –
10 | Cc1cccc2cc(/C=C/C(=O)/C=C/c3ccc(Cl)cc3)c(=O)[nH]c12 | > 100 µM | > 100 µM | – | – | > 100 µM | 1.26 µM | – | > 100 µM | > 100 µM | – | 11.6 µM | – | > 100 µM | > 100 µM | > 100 µM | > 100 µM | 3.71 µM | 331 nM | 2720 nM
11 | CN1C2CCC1/C(=C/c1cccc3c1OCO3)C(=O)/C2=C\c1cccc2c1OCO2 | – | – | > 100 µM | > 100 µM | > 100 µM | > 100 µM | – | – | – | – | > 100 µM | > 100 µM | – | – | – | – | – | – | –
12 | CC(=O)CCC#Cc1ccccc1C(=O)C(C)=[N+]=[N-] | > 100 µM | – | 39.6 µM | > 100 µM | 84.1 µM | 68.3 µM | – | – | – | – | – | > 100 µM | – | – | – | – | – | – | –
13 | O=C(O)C(Cc1cc(I)c(O)c(I)c1)C1CCCCC1 (configuration not stated) | 63.7 µM | > 100 µM | – | – | > 100 µM | – | > 100 µM | > 100 µM | 72.5 µM | > 100 µM | > 100 µM | > 100 µM | – | – | – | – | – | – | –
14 | Fc1ccc(Nc2nc(Cl)c3[nH]cnc3n2)cc1Cl | > 100 µM | > 100 µM | > 100 µM | > 100 µM | > 100 µM | > 100 µM | > 100 µM | > 100 µM | > 100 µM | > 100 µM | > 100 µM | > 100 µM | – | – | – | – | – | – | –
